In patent publication US20100324303A1, “Use of Tetramic Acid Derivatives for Controlling Animal Pests After Treatment of the Trunk, the Branches, the Influorescences or the Buds” (Bayer CropScience AG, priority 2008, published 2010):
Read-outs that look alike come from different tables or passages of the source.

Columns and labels:
Assay type in all cases: in vivo
[1] = test system: California red scale Aonidiella aurantii; test: Stem application by painting on to orange trees against California red scale; conditions: 205 days after treatment, orange trees cv. Valencia, infestation on the fruits, imidacloprid 2 g a.i./tree, Example (II) (SC 240) 4 g a.i./tree
Description: Young orange trees cv. “Valencia” which are approximately 5 years old are treated in three applications against the California red scale Aonidiella aurantii after stem application by painting on the active substances. Here, the active substance (II) (SC 240) is tested versus the commercial standard imidacloprid at the application rates detailed. The evaluation is carried out 205 days after the treatment by scoring the infestation on the fruits.

[2] = test system: pineapple mealybug Dysmicoccus brevipes; test: Pseudostem (and foliar) spray application on banana trees against pineapple mealybug; conditions: banana cv. Cavendish, 50 ml on leaves and 50 ml on peeled stem, mealybug on the stem, Banole oil 30 g/l, chlorpyrifos-methyl 0.8 g/l, (II) SC 240 0.3 g/l in tank mix with 0.025% Hoestick
Description: Banana trees (growth stage BBCH 1130) cv. “Cavendish” consisting of mother plant and sucker are treated in three replications following foliar treatment against Aspidiotus destructor and against the pineapple mealybug Dysmicoccus brevipes by pseudostem application. To this end, in each case 100 ml of spray solution are applied, in each case 50 ml being sprayed onto the leaves and 50 ml onto the stem. Before the stem application, the outermost stem layer is first peeled off, which is general practice. Here, the active substance (II) (SC 240) is tested in a tank mix along with 0.025% Hoestick (XL 500) versus the commercial standards chlorpyrifos-methyl (500 EC) and liquid paraffin (Banole oil) (EC 600).
The evaluation is carried out 3, 7, 14 and 22 days after the treatment by scoring the destruction of the pineapple mealybug on the stem.

[3] = test system: banana flower thrips (Thrips hawaiiensis); test: Flower bud injection on banana trees against banana flower thrips; conditions: banana cv. Cavendish, 80 ml injected into flower buds, destruction of population on influorescences and bunches, imidacloprid (100 SL) 0.1 g a.i./l, Example (II) (100 OD) 0.3 g a.i./l; for Activity in % Abbott 3 d: 3 days after treatment; for Activity in % Abbott 91 d: 91 days after treatment
Description: Banana trees cv. “Cavendish” are treated in three replications against banana flower thrips (Thrips hawaiiensis). Here, the active substances Example (II) (100 OD) are tested versus the commercial standard imidacloprid (100 SL) at the application rates specified. The application is carried out by injecting in each case 80 ml of injection solution into the flower buds. In each case three flower buds are treated. The evaluation is effected 3 and 91 days after the treatment by scoring the destruction of the population on the influorescences and bunches.

| Compound | Efficacy (% Abbott) [1] [% Abbott] | inhibition at 300 µg/mL ([2]; SC240, 72 h, 3 days after treatment, read-out: Activity (%) Abbott 3 d) [%] | inhibition at 300 µg/mL ([2]; SC240, 168 h, 7 days after treatment, read-out: Activity (%) Abbott 7 d) [%] | inhibition at 300 µg/mL ([2]; SC240, 336 h, 14 days after treatment, read-out: Activity (%) Abbott 14 d) [%] | inhibition at 300 µg/mL ([2]; SC240, 528 h, 22 days after treatment, read-out: Activity (%) Abbott 22 d) [%] | Activity in % Abbott 3 d [3] [% Abbott] | Activity in % Abbott 91 d [3] [% Abbott] |
| --- | --- | --- | --- | --- | --- | --- | --- |
| CCOC(=O)OC1=C(c2cc(C)ccc2C)C(=O)N[C@]12CC[C@@H](OC)CC2 [Example (II)] | 100 | 81.2 | 92.3 | 96.4 | 96.7 | 66.7 | 100 |
| O=[N+]([O-])NC1=NCCN1Cc1ccc(Cl)nc1 [Imidacloprid, imidacloprid, reference compound] | 100 | – | – | – | – | 98.4 | 100 |
